row,Compound,melting point
1,"CC(C)(CO)Nc1nc(SCc2ccccc2)nc2[nH]c(=O)sc12 [Example 1, 7-[(2-Hydroxy-1,1-dimethylethyl)amino]-5-[(phenylmethyl)thio]thiazolo[4,5-d]pyrimidin-2(3H)-one]",207 to 208 °C
2,COCC(CO)Nc1nc(SCc2cccc(F)c2F)nc2[nH]c(=O)sc12.[Na] (racemic),> 250 °C
3,"O=c1[nH]c2nc(SCc3cccc(F)c3F)nc(NC(CO)CO)c2s1 [Example 7, 5-[[(2,3-difluorophenyl)methyl]thio]-7-[[2-hydroxy-1-(hydroxymethyl)ethyl]amino]thiazolo[4,5-d]pyrimidin-2(3H)-one]",178 to 179 °C
4,"CS(=O)(=O)NCCNc1nc(SCc2cccc(F)c2F)nc2[nH]c(=O)sc12 [Example 10, N-[2-[[5-[[(2,3-difluorophenyl)methyl]thio]-2,3-dihydro-2-oxothiazolo[4,5-d]pyrimidin-7-yl]amino]ethyl]methanesulfonamide]",225 to 226 °C
5,"O=c1[nH]c2nc(SCc3cccc(F)c3F)nc(NCCO)c2s1 [Example 9, 5-[[(2,3-difluorophenyl)methyl]thio]-7-[(2-hydroxyethyl)amino]thiazolo[4,5-d]pyrimidin-2(3H)-one]",217 to 219 °C
6,"NCCNc1nc(SCc2cccc(F)c2F)nc2[nH]c(=O)sc12 [Example 8, 7-[(2-aminoethyl)amino]-5-[[(2,3-difluorophenyl)methyl]thio]thiazolo[4,5-d]pyrimidin-2(3H)-one]",215 to 216 °C

# The remaining lines, values ahead:
row,melting point,Compound
1,270 °C (dec.),"O=c1[nH]c2nc(SCc3cccc(F)c3F)nc(N[C@@H]3CNC[C@H]3O)c2s1 [Example 18, 5-[[(2,3-Difluorophenyl)methyl]thio]-7-[[(3R,4R)-4-hydroxypyrrolidin-3-yl]amino]-thiazolo[4,5-d]pyrimidin-2(3H)-one]"
2,241 to 243 °C,"C[C@H](CN)Nc1nc(SCc2cccc(Cl)c2F)nc2[nH]c(=O)sc12 [Example 25, 7-[[(1R)-2-Amino-1-methylethyl]amino]-5-[[(3-chloro-2-fluorophenyl)methyl]thio]thiazolo[4,5-d]pyrimidin-2(3H)-one]"
3,221 to 222 °C,"CC(COCCO)Nc1nc(SCc2cccc(F)c2F)nc2[nH]c(=O)sc12 (racemic) [Example 11, (+/−)-5-[[(2,3-difluorophenyl)methyl]thio]-7-[[2-(2-hydroxyethoxy)-1-methylethyl]amino]thiazolo[4,5-d]pyrimidin-2(3H)-one]"
4,231 to 232 °C,"Cc1nc(CSc2nc(NC(C)(C)CO)c3sc(=O)[nH]c3n2)cs1 [Example 22, 7-[(2-Hydroxy-1,1-dimethylethyl)amino]-5-[[(2-methyl-4-thiazolyl)methyl]thio]thiazolo[4,5-d]pyrimidin-2(3H)-one]"
5,239 to 243 °C,"Cc1nc(CSc2nc(NC(CO)CO)c3sc(=O)[nH]c3n2)cs1 [Example 21, 7-[[2-Hydroxy-1-(hydroxymethyl)ethyl]amino]-5-[[(2-methyl-4-thiazolyl)methyl]thio]thiazolo[4,5-d]pyrimidin-2(3H)-one]"
6,145 to 151 °C,"NC(=O)[C@H](CO)Nc1nc(SCc2cccc(F)c2F)nc2[nH]c(=O)sc12 [Example 26, (2S)-2-[[5-[[(2,3-Difluorophenyl)methyl]thio]-2,3-dihydro-2-oxothiazolo[4,5-d]pyrimidin-7-yl]amino]-3-hydroxy-propanamide]"

# From patent US8143261B2, “Thiazolo (4,5-D) pyrimidine compounds” (AstraZeneca AB, priority 1999, dated 2012)
